Reference: PubChem BioAssay (NCI)
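Compound exposure: 48 hours, 5 concentrations, 96-well plates. TGI: total growth inhibition.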

Key:
Assay in all cases: growth of human tumour cells (NCI), 48 h
SK-OV-3 ovarian = tested on: SK-OV-3 ovarian
SF-539 CNS = tested on: SF-539 CNS
MOLT-4 leukemia = tested on: MOLT-4 leukemia
786-0 renal = tested on: 786-0 renal
HCC-2998 colon = tested on: HCC-2998 colon
CAKI-1 renal = tested on: CAKI-1 renal
HOP-92 NSCLC = tested on: HOP-92 NSCLC
OVCAR-8 ovarian = tested on: OVCAR-8 ovarian
SNB-19 CNS = tested on: SNB-19 CNS
RXF 393 renal = tested on: RXF 393 renal
DU-145 prostate = tested on: DU-145 prostate
MDA-N = tested on: MDA-N
SK-MEL-2 melanoma = tested on: SK-MEL-2 melanoma
SR leukemia = tested on: SR leukemia
MDA-MB-231 breast = tested on: MDA-MB-231 breast
SK-MEL-5 melanoma = tested on: SK-MEL-5 melanoma
HOP-62 NSCLC = tested on: HOP-62 NSCLC
NCI-H460 lung = tested on: NCI-H460 lung

O=C1CSC(/C=C/c2ccccc2)N1c1nc2cc3sc(N4C(=O)CSC4/C=C/c4ccccc4)nc3cc2s1 (stereo unspecified)
TGI (SK-OV-3 ovarian): > 100 µM | TGI (SF-539 CNS): 9.61 µM | TGI (MOLT-4 leukemia): > 100 µM | TGI (786-0 renal): > 100 µM | TGI (HCC-2998 colon): > 100 µM | TGI (CAKI-1 renal): > 100 µM | TGI (HOP-92 NSCLC): > 100 µM | TGI (OVCAR-8 ovarian): > 100 µM | TGI (SNB-19 CNS): > 100 µM | TGI (RXF 393 renal): > 100 µM | TGI (DU-145 prostate): > 100 µM | TGI (MDA-N): > 100 µM | TGI (SK-MEL-2 melanoma): > 100 µM | TGI (SR leukemia): > 83.7 µM | TGI (MDA-MB-231 breast): > 100 µM | TGI (SK-MEL-5 melanoma): > 100 µM | TGI (HOP-62 NSCLC): > 100 µM | TGI (NCI-H460 lung): > 100 µM

CCCCNC(=O)c1cc2c(cc1Cl)Sc1nccn1S2(=O)=O
TGI (SK-OV-3 ovarian): > 100 µM | TGI (SF-539 CNS): > 100 µM | TGI (MOLT-4 leukemia): > 100 µM | TGI (786-0 renal): > 100 µM | TGI (HCC-2998 colon): > 100 µM | TGI (CAKI-1 renal): 34.3 µM | TGI (HOP-92 NSCLC): > 100 µM | TGI (OVCAR-8 ovarian): > 100 µM | TGI (SNB-19 CNS): > 100 µM | TGI (RXF 393 renal): > 100 µM | TGI (DU-145 prostate): > 100 µM | TGI (MDA-N): > 100 µM | TGI (SK-MEL-2 melanoma): > 100 µM | TGI (SR leukemia): > 100 µM | TGI (MDA-MB-231 breast): > 100 µM | TGI (SK-MEL-5 melanoma): 63.7 µM | TGI (HOP-62 NSCLC): > 100 µM | TGI (NCI-H460 lung): > 100 µM

C=C=C(CC1CCCCC1=O)S(=O)(=O)c1ccccc1 (stereo unspecified)
TGI (SK-OV-3 ovarian): > 10 µM | TGI (SF-539 CNS): > 10 µM | TGI (MOLT-4 leukemia): 3.06 µM | TGI (786-0 renal): > 10 µM | TGI (HCC-2998 colon): > 10 µM | TGI (CAKI-1 renal): > 10 µM | TGI (HOP-92 NSCLC): > 10 µM | TGI (OVCAR-8 ovarian): > 10 µM | TGI (SNB-19 CNS): > 10 µM | TGI (RXF 393 renal): > 10 µM | TGI (DU-145 prostate): > 10 µM | TGI (MDA-N): > 10 µM | TGI (SK-MEL-2 melanoma): > 10 µM | TGI (SR leukemia): > 6.03 µM | TGI (MDA-MB-231 breast): > 10 µM | TGI (SK-MEL-5 melanoma): > 10 µM | TGI (HOP-62 NSCLC): > 10 µM | TGI (NCI-H460 lung): > 10 µM

COC(=O)C(N)CCCC(N)C(=O)NC(C)C(=O)NC(CCC(=O)NCCNCCNc1c2ccccc2nc2cccc([N+](=O)[O-])c12)C(N)=O (stereo unspecified)
TGI (SK-OV-3 ovarian): > 100 µM | TGI (SF-539 CNS): 14.2 µM | TGI (MOLT-4 leukemia): > 100 µM | TGI (786-0 renal): > 31 µM | TGI (HCC-2998 colon): 34.2 µM | TGI (CAKI-1 renal): > 100 µM | TGI (HOP-92 NSCLC): 23.8 µM | TGI (OVCAR-8 ovarian): 42.3 µM | TGI (SNB-19 CNS): > 67.7 µM | TGI (RXF 393 renal): 28.5 µM | TGI (DU-145 prostate): > 66.1 µM | TGI (MDA-N): 28.1 µM | TGI (SK-MEL-2 melanoma): 30.6 µM | TGI (SR leukemia): > 100 µM | TGI (MDA-MB-231 breast): 53.1 µM | TGI (SK-MEL-5 melanoma): 18.1 µM | TGI (HOP-62 NSCLC): 53.7 µM | TGI (NCI-H460 lung): 55 µM

O=C(NC1(c2cc3ccccc3s2)CCCCC1)C1CCC1
TGI (SK-OV-3 ovarian): > 100 µM | TGI (SF-539 CNS): > 100 µM | TGI (MOLT-4 leukemia): > 100 µM | TGI (786-0 renal): > 100 µM | TGI (HCC-2998 colon): > 100 µM | TGI (CAKI-1 renal): > 100 µM | TGI (HOP-92 NSCLC): > 100 µM | TGI (OVCAR-8 ovarian): > 100 µM | TGI (SNB-19 CNS): > 100 µM | TGI (RXF 393 renal): > 100 µM | TGI (DU-145 prostate): > 100 µM | TGI (MDA-N): > 100 µM | TGI (SK-MEL-2 melanoma): > 100 µM | TGI (SR leukemia): > 100 µM | TGI (MDA-MB-231 breast): > 100 µM | TGI (SK-MEL-5 melanoma): > 100 µM | TGI (HOP-62 NSCLC): > 100 µM | TGI (NCI-H460 lung): > 100 µM

N#Cc1cc(C#N)c(N)nc1N
TGI (SK-OV-3 ovarian): > 100 µM | TGI (SF-539 CNS): > 100 µM | TGI (MOLT-4 leukemia): > 100 µM | TGI (786-0 renal): > 100 µM | TGI (HCC-2998 colon): > 100 µM | TGI (CAKI-1 renal): > 100 µM | TGI (HOP-92 NSCLC): > 100 µM | TGI (OVCAR-8 ovarian): > 100 µM | TGI (SNB-19 CNS): > 100 µM | TGI (RXF 393 renal): > 100 µM | TGI (DU-145 prostate): > 100 µM | TGI (MDA-N): > 100 µM | TGI (SK-MEL-2 melanoma): > 100 µM | TGI (SR leukemia): > 100 µM | TGI (MDA-MB-231 breast): > 100 µM | TGI (SK-MEL-5 melanoma): > 100 µM | TGI (HOP-62 NSCLC): > 100 µM | TGI (NCI-H460 lung): > 100 µM

CCCCCCCCCCCCCCCCCc1cccc(OCOCCOC)c1C(=O)O
TGI (SK-OV-3 ovarian): 28 µM | TGI (SF-539 CNS): 30.1 µM | TGI (MOLT-4 leukemia): 44.1 µM | TGI (786-0 renal): 35.2 µM | TGI (HCC-2998 colon): 36 µM | TGI (CAKI-1 renal): 35.1 µM | TGI (HOP-92 NSCLC): 35.8 µM | TGI (OVCAR-8 ovarian): 31.7 µM | TGI (SNB-19 CNS): 40.6 µM | TGI (RXF 393 renal): 37.7 µM | TGI (DU-145 prostate): 33.2 µM | TGI (MDA-N): 38.8 µM | TGI (SK-MEL-2 melanoma): 39.2 µM | TGI (SR leukemia): 50 µM | TGI (MDA-MB-231 breast): 37.4 µM | TGI (SK-MEL-5 melanoma): 39.1 µM | TGI (HOP-62 NSCLC): 38.9 µM | TGI (NCI-H460 lung): 41 µM

N=C1OC(CN2CCN(c3ccccc3)CC2)CN1C(=S)Nc1ccccc1 (stereo unspecified)
TGI (SK-OV-3 ovarian): > 100 µM | TGI (SF-539 CNS): > 100 µM | TGI (MOLT-4 leukemia): > 100 µM | TGI (786-0 renal): > 100 µM | TGI (HCC-2998 colon): > 100 µM | TGI (CAKI-1 renal): > 100 µM | TGI (HOP-92 NSCLC): > 100 µM | TGI (OVCAR-8 ovarian): > 100 µM | TGI (SNB-19 CNS): > 100 µM | TGI (RXF 393 renal): > 100 µM | TGI (DU-145 prostate): > 100 µM | TGI (MDA-N): > 100 µM | TGI (SK-MEL-2 melanoma): > 100 µM | TGI (SR leukemia): > 100 µM | TGI (MDA-MB-231 breast): > 100 µM | TGI (SK-MEL-5 melanoma): > 100 µM | TGI (HOP-62 NSCLC): > 100 µM | TGI (NCI-H460 lung): > 100 µM

c1ccc2c(Cc3[nH]c4ccccc4c3Cc3c[nH]c4ccccc34)c[nH]c2c1
TGI (SK-OV-3 ovarian): 15.4 µM | TGI (SF-539 CNS): 7.03 µM | TGI (MOLT-4 leukemia): 12 µM | TGI (786-0 renal): 4.25 µM | TGI (HCC-2998 colon): 3.26 µM | TGI (CAKI-1 renal): 10.3 µM | TGI (HOP-92 NSCLC): 18.1 µM | TGI (OVCAR-8 ovarian): 35.6 µM | TGI (SNB-19 CNS): 25.3 µM | TGI (RXF 393 renal): 5.8 µM | TGI (DU-145 prostate): 4.48 µM | TGI (MDA-N): 5.47 µM | TGI (SK-MEL-2 melanoma): 7.71 µM | TGI (SR leukemia): 15.1 µM | TGI (MDA-MB-231 breast): 5.29 µM | TGI (SK-MEL-5 melanoma): 6.05 µM | TGI (HOP-62 NSCLC): 12.7 µM | TGI (NCI-H460 lung): 4.17 µM

CC(NC(=O)/C(=C/c1ccccc1)NC(=O)c1ccccc1)C(=O)O (stereo unspecified)
TGI (SK-OV-3 ovarian): > 100 µM | TGI (SF-539 CNS): 96.6 µM | TGI (MOLT-4 leukemia): > 100 µM | TGI (786-0 renal): > 100 µM | TGI (HCC-2998 colon): > 100 µM | TGI (CAKI-1 renal): > 100 µM | TGI (HOP-92 NSCLC): > 100 µM | TGI (OVCAR-8 ovarian): > 100 µM | TGI (SNB-19 CNS): > 100 µM | TGI (RXF 393 renal): > 100 µM | TGI (DU-145 prostate): > 100 µM | TGI (MDA-N): > 100 µM | TGI (SK-MEL-2 melanoma): > 100 µM | TGI (SR leukemia): > 100 µM | TGI (MDA-MB-231 breast): > 100 µM | TGI (SK-MEL-5 melanoma): > 100 µM | TGI (HOP-62 NSCLC): > 100 µM | TGI (NCI-H460 lung): > 100 µM

CN(C)CCCc1cccc2[nH]c3c(c12)CN(C)CC3
TGI (SK-OV-3 ovarian): > 100 µM | TGI (SF-539 CNS): > 100 µM | TGI (MOLT-4 leukemia): > 100 µM | TGI (786-0 renal): > 100 µM | TGI (HCC-2998 colon): > 100 µM | TGI (CAKI-1 renal): > 100 µM | TGI (HOP-92 NSCLC): > 100 µM | TGI (OVCAR-8 ovarian): > 100 µM | TGI (SNB-19 CNS): > 100 µM | TGI (RXF 393 renal): > 100 µM | TGI (DU-145 prostate): > 100 µM | TGI (MDA-N): > 100 µM | TGI (SK-MEL-2 melanoma): > 100 µM | TGI (SR leukemia): 74.3 µM | TGI (MDA-MB-231 breast): > 100 µM | TGI (SK-MEL-5 melanoma): > 100 µM | TGI (HOP-62 NSCLC): > 100 µM | TGI (NCI-H460 lung): > 100 µM

CC(C)C1C(=O)N(c2c(F)c(F)c(F)c(F)c2F)C(=S)N1CCS(=O)c1ccccc1 (stereo unspecified)
TGI (SK-OV-3 ovarian): 34.9 µM | TGI (SF-539 CNS): 36.2 µM | TGI (MOLT-4 leukemia): 49.7 µM | TGI (786-0 renal): 32.1 µM | TGI (HCC-2998 colon): 21.8 µM | TGI (CAKI-1 renal): 9.86 µM | TGI (HOP-92 NSCLC): 34.8 µM | TGI (OVCAR-8 ovarian): 32.6 µM | TGI (SNB-19 CNS): 34.6 µM | TGI (RXF 393 renal): 35.4 µM | TGI (DU-145 prostate): 47.6 µM | TGI (MDA-N): 32.4 µM | TGI (SK-MEL-2 melanoma): 32.8 µM | TGI (SR leukemia): 16.2 µM | TGI (MDA-MB-231 breast): 32 µM | TGI (SK-MEL-5 melanoma): 27.3 µM | TGI (HOP-62 NSCLC): 40.8 µM | TGI (NCI-H460 lung): 40.1 µM
